The results in this text go back to patent publication US20050207984A1, “Formoterol and ciclesonide aerosol formulations” (priority 2002, published 2005).

The data set can be described thus: Chemical stability, ciclesonide related impurities by HPLC. The format is physicochemical. To be noted: 5 days at 50° C. Here is the method: MDI units from Example 2 were stored for 5 days at 50° C. in both valve-up and valve-down orientations (two units at each orientation). The samples were then tested for ciclesonide related impurities by High Performance Liquid Chromatography and the following results were obtained: […]

Regarding `CC(C)C(=O)OCC(=O)[C@@]12O[C@H](C3CCCCC3)O[C@@H]1C[C@H]1[C@@H]3CCC4=CC(=O)C=C[C@]4(C)[C@H]3[C@@H](O)C[C@@]12C` [ciclesonide, 11β, 16α, 17, 21-tetrahydroxypregna 1,4-diene-3,20-dione, cyclic 16,17-acetal with cyclohexanecarboxaldehyde, 21-isobutyrate], the “chemical stability in the example formulation” value is “high degree of chemical stability”.
